Legend:
Details in all cases: 72 h
[1] = tested on: HepG2; experiment: drug sensitivity score (DSS) for viability; higher = more toxic; extreme values may be limits of the assay
[2] = tested on: Caco-2; experiment: as above
[3] = tested on: U2OS; experiment: as above
[4] = tested on: Calu-3; experiment: as above
[5] = tested on: Vero E6; experiment: as above
[6] = tested on: HepG2; experiment: cell viability relative to DMSO; higher = less toxic
[7] = tested on: Caco-2; experiment: as above
[8] = tested on: U2OS; experiment: as above
[9] = tested on: Calu-3; experiment: as above
[10] = tested on: Vero E6; experiment: as above
[11] = tested on: HepG2; experiment: relative viability EC50 (midpoint between 100% and the lowest measured viability); higher = less toxic
[12] = tested on: Caco-2; experiment: as above
[13] = tested on: U2OS; experiment: as above
[14] = tested on: Calu-3; experiment: as above
[15] = tested on: Vero E6; experiment: as above

| SMILES | drug sensitivity score [1] | drug sensitivity score [2] | drug sensitivity score [3] | drug sensitivity score [4] | drug sensitivity score [5] | cell viability ([6]; 1 nM) [%] | cell viability ([6]; 10 nM) [%] | cell viability ([6]; 100 nM) [%] | cell viability ([6]; 1000 nM) [%] | cell viability ([6]; 10000 nM) [%] | cell viability ([7]; 1 nM) [%] | cell viability ([7]; 10 nM) [%] | cell viability ([7]; 100 nM) [%] | cell viability ([7]; 1000 nM) [%] | cell viability ([7]; 10000 nM) [%] | cell viability ([8]; 1 nM) [%] | cell viability ([8]; 10 nM) [%] | cell viability ([8]; 100 nM) [%] | cell viability ([8]; 1000 nM) [%] | cell viability ([8]; 10000 nM) [%] | cell viability ([9]; 1 nM) [%] | cell viability ([9]; 10 nM) [%] | cell viability ([9]; 100 nM) [%] | cell viability ([9]; 1000 nM) [%] | cell viability ([9]; 10000 nM) [%] | cell viability ([10]; 1 nM) [%] | cell viability ([10]; 10 nM) [%] | cell viability ([10]; 100 nM) [%] | cell viability ([10]; 1000 nM) [%] | cell viability ([10]; 10000 nM) [%] | relative viability EC50 [11] [µM] | relative viability EC50 [12] [µM] | relative viability EC50 [13] [µM] | relative viability EC50 [14] [µM] | relative viability EC50 [15] [µM] |
| --- | --- | --- | --- | --- | --- | --- | --- | --- | --- | --- | --- | --- | --- | --- | --- | --- | --- | --- | --- | --- | --- | --- | --- | --- | --- | --- | --- | --- | --- | --- | --- | --- | --- | --- | --- |
| Brc1ccc(NC2C3CC4CC(C3)CC2C4)cc1 (stereo not given) [bromantan] | 0 | 0 | 0 | 0 | 0 | 105 | 100 | 92 | 106 | 94.3 | 104 | 95.9 | 104 | 99.9 | 92.8 | 102 | 99.6 | 101 | 96.9 | 101 | 89.6 | 90.6 | 98.3 | 102 | 87.9 | 101 | 100 | 99.5 | 108 | 98.8 | > 10 | > 10 | > 10 | > 10 | > 10 |
| CC(C)(C)NCC(O)c1cc(Br)no1 (stereo not given) [broxaterol] | 0 | 0 | 0 | 0 | 0 | 105 | 96.9 | 92.5 | 94.8 | 97.2 | 103 | 99.2 | 93 | 96.2 | 104 | 104 | 99.1 | 97.6 | 102 | 99.4 | 111 | 95.4 | 108 | 111 | 95.9 | 105 | 101 | 103 | 98.8 | 99.4 | > 10 | > 10 | > 10 | > 10 | > 10 |
| CC(C)NCC(O)COc1cccc2[nH]c3ccccc3c12 (stereo not given) [carazolol] | 0 | 0 | 0 | 0 | 0 | 85.6 | 99 | 98.6 | 101 | 104 | 97.4 | 89.7 | 104 | 98.1 | 105 | 103 | 96.3 | 102 | 97.8 | 99.7 | 102 | 101 | 90.9 | 95.7 | 106 | 98 | 99.1 | 90.1 | 100 | 99.3 | > 10 | > 10 | > 10 | > 10 | > 10 |
| COCC1=C(C(=O)O)N2C(=O)[C@@H](NC(=O)/C(=N\OC)c3csc(N)n3)[C@H]2SC1 [cefpodoxime] | 0 | 0 | 0 | 0 | 0 | 106 | 103 | 108 | 101 | 96.1 | 106 | 112 | 97.5 | 91.4 | 105 | 104 | 99.6 | 105 | 102 | 101 | 98 | 105 | 96.8 | 99.4 | 103 | 99.7 | 98.1 | 99.2 | 97.5 | 99.4 | > 10 | > 10 | > 10 | > 10 | > 10 |
| CCN(CC)C(=O)Nc1ccc(OCC(O)CNC(C)(C)C)c(C(C)=O)c1 (stereo not given) [celiprolol] | 0 | 0 | 0 | 0 | 0 | 99.6 | 98.9 | 106 | 88.1 | 103 | 95.4 | 106 | 112 | 103 | 106 | 101 | 100 | 96.5 | 95.9 | 95.3 | 104 | 104 | 106 | 98.7 | 96.4 | 103 | 104 | 102 | 106 | 97.3 | > 10 | > 10 | > 10 | > 10 | > 10 |
| CC1=C(C(=O)O)N2C(=O)[C@@H](NC(=O)[C@H](N)c3ccccc3)[C@H]2SC1 [cephalexin] | 0 | 0 | 0 | 0 | 0 | 101 | 97.1 | 92.7 | 95.2 | 105 | 95.2 | 94.6 | 100 | 98 | 115 | 99.2 | 91.5 | 99.1 | 94.7 | 104 | 94.8 | 101 | 88.4 | 112 | 94.9 | 95.8 | 100 | 96.7 | 101 | 103 | > 10 | > 10 | > 10 | > 10 | > 10 |
| Oc1ccc(Cl)c2c1CCC2 [chlorindanol] | 0.3 | 0 | 0 | 0 | 0 | 110 | 89.5 | 97.9 | 95.2 | 84.1 | 115 | 93.9 | 84.6 | 105 | 99.5 | 101 | 98.8 | 97.1 | 107 | 98.9 | 99.8 | 118 | 107 | 109 | 96.9 | 99.5 | 100 | 103 | 96.4 | 103 | > 10 | > 10 | > 10 | > 10 | > 10 |
| CN(C)CC/C=C1/c2ccccc2Sc2ccc(Cl)cc21 [chlorprothixene] | 0.6 | 0 | 0 | 0.1 | 0 | 99.6 | 103 | 103 | 98.4 | 82.9 | 122 | 99.5 | 96.2 | 90.5 | 100 | 104 | 101 | 102 | 99.7 | 100 | 103 | 101 | 106 | 106 | 84.8 | 103 | 110 | 103 | 106 | 89.2 | > 10 | > 10 | > 10 | > 10 | > 10 |
| N[C@]1(C(=O)O)CC[C@@H](C(=O)O)C1 [cis-ACPD] | 0 | 0 | 0 | 0 | 0 | 105 | 111 | 99.5 | 96.1 | 103 | 102 | 94.7 | 101 | 104 | 94.5 | 98.7 | 94.1 | 98.1 | 101 | 97.9 | 95.3 | 101 | 108 | 107 | 101 | 103 | 99.1 | 99.4 | 98.1 | 102 | > 10 | > 10 | > 10 | > 10 | > 10 |
| NC1CCN(c2c(F)cc3c(=O)c(C(=O)O)cn(C4CC4)c3c2Cl)C1 (stereo not given) [clinafloxacin] | 0 | 0 | 0 | 0 | 0 | 115 | 97 | 108 | 97.3 | 109 | 98.7 | 100 | 89.7 | 106 | 108 | 95 | 102 | 97.5 | 102 | 102 | 95.5 | 94.4 | 94.7 | 97.6 | 99.5 | 102 | 97 | 95 | 98.7 | 104 | > 10 | > 10 | > 10 | > 10 | > 10 |
| COc1cccc2c1C(=O)c1c(O)c3c(c(O)c1C2=O)C[C@@](O)(C(C)=O)C[C@@H]3O[C@H]1C[C@H](N)[C@H](O)[C@H](C)O1 [daunorubicin] | 25.7 | 15.8 | 20.7 | 16.9 | 10.8 | 108 | 75.8 | 43.3 | 2 | 0.2 | 86.3 | 93.4 | 74.6 | 29.8 | 28 | 96.6 | 103 | 80.9 | 2.4 | 0.1 | 99.7 | 96 | 69.3 | 29.4 | 16.1 | 93.7 | 97.8 | 87.9 | 54.3 | 4.6 | 0.059 | 0.145 | 0.187 | 0.177 | 0.963 |
| COc1cc2c(cc1OC)-c1c(C)c3ccc(OC)c(OC)c3c[n+]1CC2 [dehydrocorydaline] | 0 | 0 | 0 | 0 | 0 | 98.6 | 99.4 | 95.1 | 94.2 | 95.7 | 97.6 | 100 | 92.5 | 101 | 88.8 | 99.1 | 101 | 98.6 | 100 | 97.1 | 96.4 | 105 | 91.2 | 102 | 100 | 95.9 | 100 | 99.6 | 94.8 | 98.5 | > 10 | > 10 | > 10 | > 10 | > 10 |
| COc1ccc(-c2cc(C(F)F)nn2-c2ccc(S(N)(=O)=O)cc2)cc1F [deracoxib] | 1.5 | 0 | 0 | 0 | 0 | 96.4 | 112 | 90.5 | 89.7 | 86.5 | 99.9 | 93.5 | 98.1 | 98.6 | 102 | 91.3 | 90.2 | 93.7 | 88.7 | 107 | 100 | 93.8 | 104 | 93.3 | 109 | 97.3 | 99.7 | 94.2 | 101 | 98.8 | > 10 | > 10 | > 10 | > 10 | > 10 |
| CC(C)(C)C(=O)OCC(=O)[C@H]1CC[C@H]2[C@@H]3CCC4=CC(=O)CC[C@]4(C)[C@H]3CC[C@]12C [desoxycorticosterone-pivalate] | 0 | 0 | 0 | 0 | 0 | 97 | 98.8 | 95.7 | 89 | 98.2 | 104 | 97 | 103 | 99.7 | 95.3 | 101 | 98.1 | 99.1 | 99.4 | 97.9 | 98.9 | 90.9 | 98.6 | 89.2 | 101 | 102 | 99 | 101 | 99.8 | 101 | > 10 | > 10 | > 10 | > 10 | > 10 |

Source: the supplement of paper PMC13380429
